Columns and labels:
Type in all cases: cell-based
[1] = tested on: Raw 264.7 cells; assay: NO production inhibition, LPS-treated cells, NO quantification kit; settings: positive control, 200 ppm
Procedure: In order to verify the skin soothing and anti-inflammatory effects of the bee pollen exosome raw material prepared in Preparation Example 2, the NO production inhibitory effect was measured as follows, and compared with those of the pollen extract raw material, the bee pollen extract raw material, and the plant-derived exosome raw material which are the control groups.
In detail, the NO production inhibitory effects of the above samples were measured using Raw 264.7 cells. As a positive control, 20 mg/ml L-NMMA1 (NOS inhibitor) was used, and the samples were diluted to 0.01% and 0.1% concentrations (v/v %) and treated for 30 minutes, followed by treatment with 1 μg/ml LPS and culturing for 24 hours. Then, the ability to inhibit NO production was evaluated using a NO quantification kit as follows. All results were expressed as mean±standard deviation (SD) after three or more independent experiments.
NO production inhibitory ability (%)=(1−([…] NO production amount with sample addition))/(NO production amount without sample addition)×100

[2] = tested on: B16f10 melanocytes; assay: Melanin production inhibition in melanocytes; settings: Mus musculus, B16-F10, positive control, read-out: inhibition of melanin synthesis
Procedure: In order to verify the whitening effect of the bee pollen exosome raw material prepared in Preparation Example 2, the melanin production-inhibitory effect was measured as follows.
In detail, the whitening efficacy of the bee pollen exosome raw material was evaluated by measuring the degree of reduction in the amount of melanin pigment present in melanocytes. The bee pollen exosome raw material was diluted to 0.01% and 0.1% concentrations (v/v %), and B16f10 melanocytes were treated therewith, and cultured for 72 hours, and melanin was quantified to evaluate the whitening efficacy. The melanin content was calculated based on the total protein amount, and the melanin production inhibition rate was calculated as %, based on a DMSO control group. 200 ppm of arbutin was treated as a positive control group.
In detail, the bee pollen extract raw material was prepared by grinding the same amount of bee pollens in the same manner as in preparing the bee pollen exosome, and by extracting using a general low-temperature extraction method of using purified water for 24 hours to 72 hours under the same temperature conditions (4° C. to 25° C.). […]

[3] = tested on: human dermal fibroblast (HDF) cells; assay: Collagen synthesis efficacy (procollagen type I C-peptide EIA); settings: positive control, 10 ng/ml, compared to untreated group
Procedure: To verify the collagen synthesis effect of the bee pollen exosome raw material prepared in Preparation Example 2, measurements were performed as follows.
In detail, the collagen synthesis effect was evaluated using human dermal fibroblast (HDF) cells. After pre-treating the cells with the bee pollen exosome raw material sample for 48 hours, collagen synthesis efficacy was measured using a human procollagen type I C-peptide (PIP) EIA kit. The collagen synthesis efficacy of the sample was determined by calculating the increased value in percentage (%), as compared to the untreated control group, and the results are shown in a table. 10 ng/ml TGF-b was used as a positive control group.
All of the above samples were diluted to 0.01% and 0.1% concentrations (v/v %) and evaluated.

CNC(=N)NCCC[C@H](N)C(=O)O [L-NMMA1]
NO production inhibition ability [1]: 59.17%

OC[C@H]1O[C@@H](Oc2ccc(O)cc2)[C@H](O)[C@@H](O)[C@@H]1O [arbutin]
inhibition at 200 ppm [2]: 38.1%

TGF-b: 10 ng/ml TGF-b used as positive control for collagen synthesis
collagen synthesis increase [3]: 29.87%

Source: patent US20240173249A1, “COSMETIC COMPOSITION CONTAINING BEE POLLEN EXOSOME” (LG HOUSEHOLD & HEALTH CARE LTD., priority 2022, published 2024)
